Measurements taken from ChEMBL document CHEMBL1158418, “Privileged structure-guided synthesis of quinazoline derivatives as inhibitors of trypanothione reductase” (Bioorg Med Chem Lett, 2009).
Activity calls are given as the source filed them. The calls are words filed in the database; no cut-off is given here.

Tests used:
[1] = biological target: Trypanothione reductase (Trypanosoma cruzi) (UniProt P28593); assay: Inhibition of Trypanosoma cruzi recombinant trypanothione reductase at 100 uM by spectrophotometry using 100 uM trypanothione disulfide
[2] = biological target: Trypanothione reductase (Trypanosoma cruzi) (UniProt P28593); assay: Inhibition of Trypanosoma cruzi recombinant trypanothione reductase at 100 uM by spectrophotometry using 50 uM trypanothione disulfide
Trypanosoma cruzi = assay: Antitrypanosomal activity against Trypanosoma cruzi amastigotes infected in rat L6 cells; type: functional, organism-based
[3] = test system: Trypanosoma brucei rhodesiense; assay: Antitrypanosomal activity against Trypanosoma brucei rhodesiense bloodstream trypomastigotes; type: functional, organism-based
Leishmania donovani = assay: Antileishmanial activity against Leishmania donovani axenic amastigotes; type: functional, organism-based
Plasmodium falciparum = assay: Antiplasmodial activity against intraerythrocytic form of Plasmodium falciparum; type: functional, organism-based
L6 = assay: Cytotoxicity against rat L6 cells; type: cell-based
Trypanothione reductase [4] = biological target: T1, Trypanothione reductase (Trypanosoma cruzi, UniProt P28593); assay: Inhibition of Trypanosoma cruzi recombinant trypanothione reductase by spectrophotometry-based non competitive inhibition type assay
[5] = biological target: Trypanothione reductase (Trypanosoma cruzi) (UniProt P28593); assay: Inhibition of Trypanosoma cruzi recombinant trypanothione reductase at 25 uM by spectrophotometry using 100 uM trypanothione disulfide
[6] = biological target: Trypanothione reductase (Trypanosoma cruzi) (UniProt P28593); assay: Inhibition of Trypanosoma cruzi recombinant trypanothione reductase at 25 uM by spectrophotometry using 50 uM trypanothione disulfide
Trypanothione reductase [7] = biological target: T1, Trypanothione reductase; assay: Inhibition of Trypanosoma cruzi recombinant trypanothione reductase by spectrophotometry
[8] = biological target: T2, Glutathione reductase, mitochondrial (Homo sapiens) (UniProt P00390); assay: Inhibition of human glutathione reductase at 10 uM by spectrophotometry in presence of 100 uM GSSG
T2 sequence (whole entry): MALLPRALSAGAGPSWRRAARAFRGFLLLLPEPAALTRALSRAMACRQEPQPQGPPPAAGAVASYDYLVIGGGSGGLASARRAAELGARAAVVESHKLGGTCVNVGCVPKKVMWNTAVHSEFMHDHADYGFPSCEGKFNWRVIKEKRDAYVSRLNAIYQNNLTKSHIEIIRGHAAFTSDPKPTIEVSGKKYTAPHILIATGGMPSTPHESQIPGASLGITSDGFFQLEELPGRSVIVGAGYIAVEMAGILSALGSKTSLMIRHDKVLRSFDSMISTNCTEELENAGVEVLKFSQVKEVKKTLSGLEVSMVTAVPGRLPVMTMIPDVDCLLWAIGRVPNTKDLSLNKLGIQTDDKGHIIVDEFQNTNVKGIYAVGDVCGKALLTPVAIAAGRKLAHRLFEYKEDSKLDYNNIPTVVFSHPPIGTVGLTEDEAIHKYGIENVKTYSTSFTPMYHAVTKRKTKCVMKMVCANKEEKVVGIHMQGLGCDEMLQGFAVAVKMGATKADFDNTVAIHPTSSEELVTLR

Trypanothione reductase [9] = biological target: T1, Trypanothione reductase; assay: Inhibition of Trypanosoma cruzi recombinant trypanothione reductase by spectrophotometry-based mixed inhibition type assay

Trypanothione reductase (Trypanosoma cruzi), sequence (P28593 whole entry, looked up): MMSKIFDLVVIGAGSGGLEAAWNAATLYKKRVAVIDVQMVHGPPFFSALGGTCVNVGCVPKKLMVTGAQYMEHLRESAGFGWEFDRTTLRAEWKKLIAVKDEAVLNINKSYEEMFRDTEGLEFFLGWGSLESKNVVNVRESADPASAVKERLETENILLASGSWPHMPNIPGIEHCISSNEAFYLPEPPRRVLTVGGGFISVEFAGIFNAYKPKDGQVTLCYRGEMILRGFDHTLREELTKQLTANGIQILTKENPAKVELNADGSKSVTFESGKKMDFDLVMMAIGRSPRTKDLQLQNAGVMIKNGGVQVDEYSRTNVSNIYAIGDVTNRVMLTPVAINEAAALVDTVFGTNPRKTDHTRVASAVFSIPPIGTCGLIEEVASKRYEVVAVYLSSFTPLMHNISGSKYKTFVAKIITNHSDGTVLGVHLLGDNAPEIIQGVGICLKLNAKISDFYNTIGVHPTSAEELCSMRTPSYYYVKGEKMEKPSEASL
T1 sequence (P28593 whole entry): as the sequence (P28593 whole entry, looked up) above

Compound | inhibition [1] [%] | inhibition [2] [%] | IC50 (Trypanosoma cruzi) [µM] | IC50 [3] [µM] | IC50 (Leishmania donovani) [µM] | IC50 (Plasmodium falciparum) [µM] | Ki (Trypanothione reductase [4]) [µM] | inhibition [5] [%] | inhibition [6] [%] | Ki (Trypanothione reductase [7]) [µM] | inhibition [8] | Ki (Trypanothione reductase [9]) [µM] | IC50 (L6) [µM]
COC1=CC(=O)C=C(N2CCN(c3nc(N)c4cc(OC)c(OC)cc4n3)CC2)C1=O | 75 | 69 | 35.6 | 1.98 | 45.7 | 3.01 | 32 | – | – | – | – | – | 52.5
COc1cc2nc(N3CCN(C4=CC(=O)c5ccccc5C4=O)CC3)nc(N)c2cc1OC | – | – | 3.68 | 0.12 | 1.78 | 0.53 | – | 57 | 53 | 7.5 | inactive | 22 | 2.76
COc1cc2nc(N3CCN(C(=O)Cc4c[nH]c5ccccc45)CC3)nc(N)c2cc1OC | 23 | 13 | 10.2 | 2.21 | 42.2 | 1.35 | – | – | – | – | – | – | 19.6
CN(C)CCOc1cc2nc(N3CCN(C(=O)Cc4c[nH]c5ccccc45)CC3)nc(N)c2cc1OCCN(C)C | 33 | 44 | > 50 | 21.8 | > 54 | 2.19 | – | – | – | – | – | – | > 161
CN(C)CCOc1cc2nc(N3CCN(C4=CC(=O)c5ccccc5C4=O)CC3)nc(N)c2cc1OCCN(C)C | – | – | – | – | – | – | 11 | – | – | – | – | – | –

Second part, led by results:

inhibition [1] [%] | inhibition [2] [%] | IC50 (Trypanosoma cruzi) [µM] | IC50 [3] [µM] | IC50 (Leishmania donovani) [µM] | IC50 (Plasmodium falciparum) [µM] | Ki (Trypanothione reductase [4]) [µM] | inhibition [5] [%] | inhibition [6] [%] | Ki (Trypanothione reductase [7]) [µM] | inhibition [8] | Ki (Trypanothione reductase [9]) [µM] | Compound | IC50 (L6) [µM]
0 | 0 | 14.3 | 1.81 | > 67 | 2.1 | – | – | – | – | – | – | COc1cc2nc(N3CCN(C(=O)[C@@H]4Cc5ccccc5CN4)CC3)nc(N)c2cc1OC | 14.2
0 | 0 | 27.6 | 5.37 | > 67 | 1.24 | – | – | – | – | – | – | COc1cc2nc(N3CCN(C(=O)[C@H]4Cc5ccccc5CN4)CC3)nc(N)c2cc1OC | 37.2
– | – | – | – | – | – | – | – | – | – | – | 16 | COc1cc(C(=N)NC2CCC(CC3CCC(/N=C(\N)c4ccc(OCc5ccccc5)c(OC)c4)CC3)CC2)ccc1OCc1ccccc1 (stereo not drawn) | –
